Experimental data published in patent US20130023555A1, “KINASE INHIBITOR WITH IMPROVED SOLUBILITY PROFILE” (Abbott Laboratories, priority 2011, published 2013).
Values after ≈ are worked out from the molar mass of the structure shown.

Columns and labels:
CSF1R = biological target: T1, CSF1R (Homo sapiens, UniProt P07333); experiment: HTRF in vitro kinase assay, CSF1R; assay type: biochemical; conditions: 1 mM ATP
T1 construct: CSF-1R Q547- C972; M-His(6) (N)
T1 sequence (P07333 547-972): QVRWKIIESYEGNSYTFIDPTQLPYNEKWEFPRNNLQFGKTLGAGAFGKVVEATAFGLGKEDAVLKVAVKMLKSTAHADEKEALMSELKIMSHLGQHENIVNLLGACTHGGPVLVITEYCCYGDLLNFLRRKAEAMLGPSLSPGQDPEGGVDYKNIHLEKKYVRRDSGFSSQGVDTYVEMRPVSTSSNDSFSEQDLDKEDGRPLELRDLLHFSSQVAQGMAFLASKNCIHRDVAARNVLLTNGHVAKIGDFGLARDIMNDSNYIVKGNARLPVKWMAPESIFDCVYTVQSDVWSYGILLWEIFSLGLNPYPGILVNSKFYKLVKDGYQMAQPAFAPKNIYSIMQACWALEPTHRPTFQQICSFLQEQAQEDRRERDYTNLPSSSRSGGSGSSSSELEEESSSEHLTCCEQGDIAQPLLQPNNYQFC
Method: (§1) To determine the activity of the various kinases, a homogenous time-resolved fluorescence (HTRF) in vitro kinase assay was used. (Mathis, G., HTRF(R) Technology. J Biomol Screen, 1999. 4(6): p. 309-314; Alfred J. Kolb, Paul V. Kaplita, David J. Hayes, Young-Whan Park, Christine Pernell, John S. Major and Gerard Mathis, Drug Discovery Today, 1998, 3, 333-342.)
(§2) For example for KDR, cKIT, FLT1, CSF1R and FTL3, purified enzyme was mixed with 0.5 μM N-biotinylated substrate (Biotin-Ahx-[…]-amide (SEQ. ID. 1)), various concentrations of inhibitor in reaction buffer (50 mM HEPES, pH 7.1, 10 mM MgCl2, 2 mM MnCl2, 0.1% BSA and 1 mM DTT, 40 μL final volume), ATP (1 mM final conc.) in a black 384-well plate. […] The quenched reaction was allowed to stand at room temperature for 3 hours and was then read in a time-resolved fluorescence detector (InVision, Perkin-Elmer) at 620 nm and 665 nm sequentially with excitation. The ratio between the signal of 620 nm and 665 nm was used in the calculation of the IC50.

FLT3 = biological target: T2, FLT3 (Homo sapiens, UniProt P36888); experiment: HTRF in vitro kinase assay, FLT3; assay type: biochemical; conditions: 1 mM ATP
T2 construct: FLT3 Q569- S993; M-His(6) (N)
T2 sequence (P36888 569-993): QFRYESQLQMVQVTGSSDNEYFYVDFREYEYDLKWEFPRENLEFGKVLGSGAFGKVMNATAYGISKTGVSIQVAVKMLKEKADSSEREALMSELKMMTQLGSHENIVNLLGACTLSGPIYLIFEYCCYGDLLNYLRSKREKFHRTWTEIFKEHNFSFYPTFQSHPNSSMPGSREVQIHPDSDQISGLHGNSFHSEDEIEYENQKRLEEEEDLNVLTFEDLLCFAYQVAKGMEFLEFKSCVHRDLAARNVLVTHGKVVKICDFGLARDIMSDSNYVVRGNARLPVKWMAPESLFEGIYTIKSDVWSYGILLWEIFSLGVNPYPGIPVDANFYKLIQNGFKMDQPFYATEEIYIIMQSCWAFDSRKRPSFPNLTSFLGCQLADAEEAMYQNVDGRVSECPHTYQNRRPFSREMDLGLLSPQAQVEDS
Method: as §1, §2

cKIT = biological target: T3, cKIT (Homo sapiens, UniProt P10721); experiment: HTRF in vitro kinase assay, cKIT; assay type: biochemical; conditions: 1 mM ATP
T3 construct: GST
Method: as §1
For example for KDR, cKIT, FLT1, CSF1R and FTL3, purified enzyme was mixed with 0.5 μM N-biotinylated substrate (Biotin-Ahx-[…]-amide (SEQ. ID. 1)), various concentrations of inhibitor in reaction buffer (50 mM HEPES, pH 7.1, 10 mM MgCl2, 2 mM MnCl2, 0.1% BSA and 1 mM DTT, 40 μL final volume), ATP (1 mM final conc.) in a black 384-well plate. After 60 minutes incubation at room temperature, the reaction was quenched by addition of a buffered EDTA solution (final approximate concentrations: 30 mM EDTA, 0.1% BSA, 0.1% Triton X-100 and 0.24M KF) and a solution of revelation agents (to give 0.084 ng/well streptavidin-XL-665 (Cis-Bio) and 6.5 ng/well antiphsophotyrosine mAb PT66-K Europium kryptate) was added to the reaction mixture. The quenched reaction was allowed to stand at room temperature for 3 hours and was then read in a time-resolved fluorescence detector (InVision, Perkin-Elmer) at 620 nm and 665 nm sequentially with excitation. The ratio between the signal of 620 nm and 665 nm was used in the calculation of the IC50.

Aurora B = biological target: T4, Aurora B (Homo sapiens, UniProt Q96GD4); experiment: Aurora B enzyme assay (time-resolved fluorescence); assay type: biochemical; conditions: 1 mM ATP, with INCENP
T4 construct: Active Aurora B enzyme (recombinant residues 1-344)
Method: After 1 hour, the reaction was stopped with EDTA and anti-phospho-histone H3 Europium Cryptate (Cis-Bio) and SA-APC (Phycolink, Prozyme) were added to detect the phosphopeptide. The amount of phosphorylation was determined by the time-resolved fluorescence ratio of signals at 665 nm and 615 nm. The IC50's were calculated by an exponential fit of the inhibition values with the inhibitor concentrations using Assay Explorer software.

[1] = Determination of Thermodynamic Solubility; assay type: physicochemical; conditions: PEG 300, 25 °C, organic solvent or mixture, thermodynamic from solid, PEG 300, Example 2 at 25° C., Example 1 at ambient temperature, read-out: Solubility (PEG300)
Method: Aqueous pH 7.4 and PEG 300 samples were tested at 25° C. Excess amount of the bulk drug was weighed out and mixed with an aliquot of target media in a clear glass vial (n=3/solvent). The vial was capped, wrapped with aluminum foil, and tumbled in a 25° C. water bath. When equilibration was completed, the samples were removed from the water bath and the final pH was measured, if applicable. The samples were centrifuged at 25° C. at 3000 rpm for 20 minutes. The supernatant was filtered through 4 mm 0.45 μm PTFE syringe filters. The filtrate was assayed after appropriate dilution (no dilution required for aqueous samples). The concentration of the sample was calculated against a calibration curve for the compound.
Solubility in pH 7.4 buffer was carried out as described above, except samples were not centrifuged before filtration. All other experimental steps were the same. PEG 300 and PEG 400 solubility were done at ambient temperature. Excess amount of the bulk drug was weighed out and mixed with an aliquot of target media in a clear glass vial with a small stir bar (n=3). The vials were placed on the stirrer at ˜500 rpm and allowed to equilibrate over the weekend. Samples were filtered through 13 mm 0.45 μm GHP syringe filters. The filtrate was assayed after appropriate dilutions, and concentrations determined against a calibration curve for the compound.

T4 sequence (Q96GD4 whole entry, the tested form may be a part): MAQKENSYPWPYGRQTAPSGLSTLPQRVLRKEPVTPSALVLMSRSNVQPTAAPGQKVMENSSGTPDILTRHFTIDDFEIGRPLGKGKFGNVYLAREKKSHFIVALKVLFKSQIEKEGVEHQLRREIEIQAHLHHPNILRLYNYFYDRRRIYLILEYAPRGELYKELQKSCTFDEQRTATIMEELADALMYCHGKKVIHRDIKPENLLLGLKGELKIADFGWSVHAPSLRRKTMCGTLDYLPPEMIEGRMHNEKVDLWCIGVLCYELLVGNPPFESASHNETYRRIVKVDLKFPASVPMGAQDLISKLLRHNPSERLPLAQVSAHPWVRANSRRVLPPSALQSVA
T4 sequence (Q9NQS7 803-918 partner limits assumed): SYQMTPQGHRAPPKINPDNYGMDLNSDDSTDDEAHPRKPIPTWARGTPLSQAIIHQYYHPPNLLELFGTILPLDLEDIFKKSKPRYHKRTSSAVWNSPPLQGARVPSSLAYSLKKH
T3 sequence (P10721 544-976 limits assumed): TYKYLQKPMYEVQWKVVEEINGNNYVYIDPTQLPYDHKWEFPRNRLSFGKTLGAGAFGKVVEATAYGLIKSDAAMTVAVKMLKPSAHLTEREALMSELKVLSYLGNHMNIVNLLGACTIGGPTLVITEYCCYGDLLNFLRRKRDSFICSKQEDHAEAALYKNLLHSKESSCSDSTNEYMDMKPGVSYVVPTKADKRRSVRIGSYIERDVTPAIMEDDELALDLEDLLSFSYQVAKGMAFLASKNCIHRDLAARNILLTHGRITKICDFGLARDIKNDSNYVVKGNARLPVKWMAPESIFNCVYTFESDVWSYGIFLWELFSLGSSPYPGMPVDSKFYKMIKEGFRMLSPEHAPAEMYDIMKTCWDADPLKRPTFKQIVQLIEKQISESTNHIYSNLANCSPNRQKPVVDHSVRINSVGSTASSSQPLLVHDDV

- IC50 (CSF1R): 3 nM
- IC50 (FLT3): 2 nM
- IC50 (cKIT): 6 nM
- IC50 (Aurora B): 1.3 nM
- solubility [1]: 8400 µg/mL (≈ 19.5 mM)
SMILES: CNC(=O)c1cnc(N)c2c(-c3ccc(NC(=O)Nc4cccc(C)c4)cc3)csc12 [Example 2, 4-amino-N-methyl-3-(4-{[(3-methylphenyl)carbamoyl]amino}phenyl)thieno[3,2-c]pyridine-7-carboxamide]
